Where two headings read alike, the source gives them in different places.
Key:
[1] = Absorbance maximum and extinction coefficient; type: physicochemical; conditions: for ε (extinction coefficient): pH 7.2, at 480 nm
Experimental: First, the extinction coefficient of compounds 1-9 and 14 was determined. Stock solutions (5×10^-3 M) of each dye were made by dissolving the dye in two equivalents of 0.1 N NaOH and making up the volume with carbonate/bicarbonate buffer (0.16, 0.34 M, pH 9.5). The solution was diluted ([…]) in additional buffer (final pH 9.5-10) and the absorbance spectrum measured. A stock solution (1.2×10^-3 M) of Vita Blue was prepared in DMSO, diluted into citrate buffer (0.1 M, pH 5 2) to give a final concentration of 1.6×10^-5 M and the absorbance spectrum measured. A stock solution (8.2×10^-3 M) of VBDB was prepared in DMSO and diluted into pyrophosphate buffer (0.1 M, pH 7.2) to give a final concentration of 8.1×10^-5 M and the absorbance spectrum measured on a Beckman model DU-6UV visible spectrophotometer.
(§1) Finally, the spectral characteristics of compounds 1-9 was determined. The extinction coefficients and quantum yields or compounds 1-9 were determined at pH 9.5. The extinction coefficient and quantum yield of monoprotonated Vita Blue was also determined at pH 5.2. The extinction coefficient and the quantum yield of VBDB were determined at pH 7.2.

[2] = Fluorescence emission maximum and quantum yield; type: physicochemical
Experimental: Second, quantum yields of compounds 1-9 and 14 were measured. Solutions (1×10^-6 M) of compounds 1-9 were prepared in carbonate/ bicarbonate buffer (pH 9.5). Fluorescence emission spectra were measured on a Perkin-Elmer MPF-2A fluorescence spectrophotometer in 3-mL disposable plastic cuvettes. The excitation wavelength was set 30 nm to the red of the maximum excitation wavelength and the emission spectra measured. The area under the emission spectrum was measured (F). The quantum yield (.PHI.) was determined using the following equation, F-kIo .PHI.εcb, where F is the fluorescence, k is a fluorimeter constant, Io is the light intensity at the exciting wavelength, ε is the extinction coefficient at the exciting wavelength, c is the concentration of the dye, and b is the pathlength of the cuvette. The value of k was determined for three different emission wavelength regions by using literature values of .PHI. and measuring the fluorescence of fluorescein (470-670 nm, .PHI.=0.92), eosin (500-700 nm, .PHI.=0.19) and allophycocyanin (Applied BioSystems, 600-800 nm, .PHI.=0.68). The value of Io was determined from a table that was generated by scanning the range of exciting wavelengths on the fluorescence spectrophotometer with the emission monochrometer open; a piece of white paper was placed in the sample holder to reflect the exciting light. The concentration of the dyes were 0.6-1.0 uM; this value in each case was below the concentration ([…]) required in order for the equation to be valid.
as §1

[3] = molecular target: T1, pig liver esterase (E.C. 3.1.1.1) (Sus scrofa, UniProt Q29550); assay: Enzymatic hydrolysis by esterase (Km, Lineweaver-Burk); type: biochemical
T1 sequence (Q29550 19-566): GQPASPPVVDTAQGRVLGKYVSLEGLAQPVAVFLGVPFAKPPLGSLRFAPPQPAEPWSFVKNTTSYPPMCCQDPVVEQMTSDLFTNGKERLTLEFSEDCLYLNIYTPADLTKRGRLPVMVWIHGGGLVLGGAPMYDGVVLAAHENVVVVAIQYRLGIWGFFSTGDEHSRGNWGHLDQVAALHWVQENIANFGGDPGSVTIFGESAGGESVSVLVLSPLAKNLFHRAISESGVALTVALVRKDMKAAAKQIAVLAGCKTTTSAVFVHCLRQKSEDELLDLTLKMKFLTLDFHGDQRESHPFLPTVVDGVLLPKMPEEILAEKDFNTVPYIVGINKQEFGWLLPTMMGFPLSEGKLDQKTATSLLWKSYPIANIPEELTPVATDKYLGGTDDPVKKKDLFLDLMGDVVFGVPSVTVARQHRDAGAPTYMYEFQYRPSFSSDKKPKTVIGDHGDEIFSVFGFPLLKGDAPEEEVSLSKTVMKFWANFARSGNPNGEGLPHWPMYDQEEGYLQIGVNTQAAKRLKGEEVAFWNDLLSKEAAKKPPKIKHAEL

[4] = Staining of lysed whole blood, fluorescence by flow cytometry; type: cell-based, human; conditions: human, white blood cells
Experimental: (§2) After characterizing the various xanthene dyes prepared in accordance with this invention, one of the dyes (VBDB) was used to stain cells. The ability of VBDB to stain cells was compared with BCECF-AM, a membrane permeable esterase substrate (Molecular Probes) and fluorescein diacetate (FDA). […] After incubation, the tube was centrifuged. This procedure specifically lyses red blood cells leaving the white cells intact and viable. The supernatant was removed and the white blood cells which remained were washed twice and resuspended in blood cell diluent (1 mL, Diagnostic Technology, Inc.). The cell concentration and the percentage of dead cells were ascertained by counting the cells manually using a fluorescent microscope and a hemacytometer; acridine orange and ethidium bromide were used to stain live and dead cells respectively.
(§3) Four samples of approximately 1.7×10^6 cells then were placed in polystyrene tubes. To each tube was added one of the following solutions (1 mL): FDA (1 uM) BCECF-AM (1 uM), VBDB (0.8 uM), or VBDB (8.0 uM). The dye solutions were prepared by diluting a stock solution of each dye (1-8 mM in DMSO) into blood cell diluent. The tubes were kept at room temperature for 30 minutes. The samples were washed three times and resuspended in blood cell diluent (1 mL).
(§4) A bandpass 530/30 emission filter was used for both FDA and BCECF-AM, while a bandpass 660/20 emission filter was used for VBDB. Data from 10,000 events were acquired from each of these samples immediately after staining, one hour after staining, and two hours after staining.
(§5) Referring to FIG. 2, VBDB, BCECF-AM and FDA were compared as vital dyes by staining lysed whole blood and examining the fluorescence by flow cytometry. […] Four samples of cells were incubated with BCECF AM (1 uM), FDA (1 uM) and VBDB (0.8 uM, 8.0 uM). The cells were analyzed immediately after staining (t=0), after one hour (t=1) and after two hours (t=2).
(§6) The data in FIG. 2 also was used to quantitate the "live" cells and the "dead" cells. […] It was assumed the live cells were those cells which retained the dye (the right peak) and that dead cells were those cells whose membranes had become leaky (the left peak). By setting the gate to the immediate left of the main peak, the "dead" cells to the left of the gate were counted.

human white blood cells = assay: as above; type: cell-based
Experimental: as §2, §3, §4, §5, §6

Stability in water = conditions: pH 7
[5] = Membrane permeability of diacetates; conditions: diacetate esters
[6] = pH 7
[7] = not told

With `CCCC(=O)Oc1ccc2c3c(ccc2c1)C1(OS(=O)(=O)c2ccccc21)c1ccc2cc(OC(=O)CCC)ccc2c1O3` [Compound 14, Vita Blue dibutyrate] the “Abs Max” value ([1]; pH 7.2) was 480 nm, the “ε (extinction coefficient)” value [1] was 5900 M⁻¹ cm⁻¹ and the “ε (extinction coefficient)” value ([1]; listed as dibutyrate derivative of compound 9) was 5900 M⁻¹ cm⁻¹. For the same molecule, the excitation maximum [2] was 480 nm, the “EM Max” value ([2]; pH 7.2) was 552 nm and the “Quantum Yield” value ([2]; pH 7.2) was 0.03. The “EM Max” value ([2]; pH 7.2, listed as dibutyrate derivative of compound 9) was 550 nm, the esterase substrate [3] was “good substrate” and the specific activity ([3]; pH 8.0) was 2.5 (ug substrate) (min)^-1 (mg enzyme)^-1. The percentage of dead (leaky) cells at 0 h, 0.8 µM ([4]; 0.8 uM, t=0) was 14%, the percentage of dead (leaky) cells at 1 h, 0.8 µM ([4]; 0.8 uM, t=1 h) was 18% and the percentage of dead (leaky) cells at 2 h, 0.8 µM ([4]; 0.8 uM, t=2 h) was 20%. The percentage of dead (leaky) cells at 8 µM ([4]; 8 uM, second value, printed t=2) was 17%, the percentage of dead (leaky) cells at 0 h, 8 µM ([4]; 8 uM, t=0) was 12% and the percentage of dead (leaky) cells at 2 h, 8 µM ([4]; 8 uM, t=2 h) was 22%. For the same molecule, the “retention of initial fluorescence by stained cells over time” value (human white blood cells; 0.8 uM dye) was “maintained their initial fluorescence”, the “coefficient of variation (CV) in the fluorescence histogram” value (“coefficient of variation (CV)” for short) (human white blood cells; 0.8 uM, t=0) was 39% and the “coefficient of variation (CV)” value (human white blood cells; 0.8 uM, t=1 h) was 43%. The “coefficient of variation (CV)” value (human white blood cells; 0.8 uM, t=2 h) was 46%, the “retention of initial fluorescence by stained cells over time” value (human white blood cells; 8 uM dye, after one hour) was “actually increased their fluorescence slightly after one hour” and the “coefficient of variation (CV)” value (human white blood cells; 8 uM, t=0) was 30%. For the same molecule, the “coefficient of variation (CV)” value (human white blood cells; 8 uM, t=1 h) was 35%, the “coefficient of variation (CV)” value (human white blood cells; 8 uM, t=2 h) was 34% and the “number of leaky cells, comparison of BCECF and VBDB” value (human white blood cells; after two hours, higher VBDB concentration) was “the same number of "leaky" cells after two hours”. For the same molecule, the “deleterious effect on cells” value (human white blood cells; higher concentration (8 uM)) was “did not seem to be deleterious to the cells” and the stability in water (Stability in water) was “relatively stable in water at pH 7”.
For `CC(=O)Oc1ccc2c3c(ccc2c1)C1(OS(=O)(=O)c2ccccc21)c1ccc2cc(OC(C)=O)ccc2c1O3` [Diacetate ester of compound 9, Vita Blue diacetate], the esterase substrate [3] was “esterase substrates” and the membrane permeability [5] was “neither diacetates were membrane permeable”.
With “Sulfonefluorescein diacetate [Diacetate ester of compound 2]” the esterase substrate [3] was “esterase substrates”, the stability in water [6] was “relatively stable in water at pH 7” and the membrane permeability [7] was “neither diacetates were membrane permeable”.

Source: patent US5066580A, “Xanthene dyes that emit to the red of fluorescein” (priority 1990, dated 1991)
